In ChEMBL document CHEMBL4251585, “Accelerated skin wound healing by selective 11β-Hydroxylase (CYP11B1) inhibitors” (Eur J Med Chem, 2018):

Experiments:
[1] = target: T1, Cytochrome P450 11B1, mitochondrial (Homo sapiens, UniProt P15538); experiment: Inhibition of human CYP11B1 expressed in hamster V79MZ cells using [1,2-3H]-11-deoxycorticosterone as substrate after 6 hrs by HPTLC analysis; format: cell-based
T1 sequence (P15538 whole entry): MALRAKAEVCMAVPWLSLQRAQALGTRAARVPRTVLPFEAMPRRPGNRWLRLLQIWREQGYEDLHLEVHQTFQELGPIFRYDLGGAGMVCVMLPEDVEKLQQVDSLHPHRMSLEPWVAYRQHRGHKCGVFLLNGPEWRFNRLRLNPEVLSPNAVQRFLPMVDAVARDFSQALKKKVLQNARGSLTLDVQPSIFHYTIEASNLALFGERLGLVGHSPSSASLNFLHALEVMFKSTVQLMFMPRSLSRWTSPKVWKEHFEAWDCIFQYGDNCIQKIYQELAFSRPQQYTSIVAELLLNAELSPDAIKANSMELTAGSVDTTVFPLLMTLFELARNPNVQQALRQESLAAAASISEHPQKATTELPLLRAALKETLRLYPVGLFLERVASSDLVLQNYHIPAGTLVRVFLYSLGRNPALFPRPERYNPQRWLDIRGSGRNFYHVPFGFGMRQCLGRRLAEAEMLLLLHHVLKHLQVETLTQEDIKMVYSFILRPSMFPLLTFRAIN

CYP19A1 (aromatase) = target: T2, CYP19A1 (aromatase) (Homo sapiens, UniProt P11511); experiment: Inhibition of human placental microsomal CYP19A1 at 2 uM using [1beta-3H]androstenedione after 21 mins by liquid scintillation spectrometry; format: ADME; conditions: placental microsomes, probe [1beta-3H]androstenedione
T2 sequence (P11511 whole entry): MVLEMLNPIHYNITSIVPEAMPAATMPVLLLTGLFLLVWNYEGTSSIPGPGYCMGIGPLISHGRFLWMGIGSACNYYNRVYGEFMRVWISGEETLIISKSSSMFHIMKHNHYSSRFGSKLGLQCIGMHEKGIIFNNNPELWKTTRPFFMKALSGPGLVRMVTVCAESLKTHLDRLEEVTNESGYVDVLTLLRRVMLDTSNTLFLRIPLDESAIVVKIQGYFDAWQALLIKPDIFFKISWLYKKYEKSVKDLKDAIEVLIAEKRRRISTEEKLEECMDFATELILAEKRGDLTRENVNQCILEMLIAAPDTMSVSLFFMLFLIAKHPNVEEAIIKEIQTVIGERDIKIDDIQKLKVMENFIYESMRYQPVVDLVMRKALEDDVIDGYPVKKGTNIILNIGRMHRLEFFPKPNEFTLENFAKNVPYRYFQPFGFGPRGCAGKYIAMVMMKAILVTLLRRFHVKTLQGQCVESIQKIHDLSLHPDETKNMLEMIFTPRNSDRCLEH

[2] = Half life in human liver S9 fraction at 1 uM up to 60 mins in presence of NADPH/UDPGA by LC-MS/MS analysis; format: ADME, subcellular
Zone of skin [3] = experiment: Induction of wound healing in human skin explant assessed as re-epithelialization at 5 uM administered topically for 3 days measured on day 3 post administration by hematoxylin-eosin-saffron staining based microscopic analysis relative to control; format: functional
[4] = target: T3, 11-beta-hydroxysteroid dehydrogenase 1 (Homo sapiens, UniProt P28845); experiment: Inhibition of human 11beta-HSD1 expressed in HEK293 cell lysates at 200 uM using [1,2-3H]-cortisone as substrate preincubated for 10 mins followed by substrate addition in presence of NADPH by scintillation counting relative to control
Target sequence in this assay (P28845 whole entry, looked up): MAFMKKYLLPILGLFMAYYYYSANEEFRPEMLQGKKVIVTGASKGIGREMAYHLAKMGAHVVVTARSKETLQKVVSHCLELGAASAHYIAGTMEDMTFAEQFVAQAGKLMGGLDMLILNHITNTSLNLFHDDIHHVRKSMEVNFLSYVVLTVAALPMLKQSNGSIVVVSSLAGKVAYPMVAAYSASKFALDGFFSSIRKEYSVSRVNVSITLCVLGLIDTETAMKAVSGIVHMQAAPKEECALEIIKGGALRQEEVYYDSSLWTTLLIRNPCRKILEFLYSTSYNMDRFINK

[5] = Cytotoxicity against human epidermal keratinocytes assessed as cell viability at 11 uM after 72 hrs by MTT assay relative to control; set-up: species or system Keratinocyte; conditions: read-out: Activity
Salmonella typhimurium [6] = experiment: Mutagenicity in Salmonella typhimurium TA98 up to 100 uM in presence of rat liver S9 fraction by Ames 2 assay; format: toxicity, organism-based; conditions: salmonella enterica subsp. enterica serovar typhimurium
[7] = target: T4, 11-beta-hydroxysteroid dehydrogenase type 2 (Homo sapiens, UniProt P80365); experiment: Inhibition of human 11beta-HSD2 expressed in HEK293 cell lysates at 200 uM using [1,2,6,7-3H]-cortisol as substrate preincubated for 10 mins followed by substrate addition in presence of NAD by scintillation counting relative to control; set-up: species or system Lysate
T4 sequence (P80365 whole entry): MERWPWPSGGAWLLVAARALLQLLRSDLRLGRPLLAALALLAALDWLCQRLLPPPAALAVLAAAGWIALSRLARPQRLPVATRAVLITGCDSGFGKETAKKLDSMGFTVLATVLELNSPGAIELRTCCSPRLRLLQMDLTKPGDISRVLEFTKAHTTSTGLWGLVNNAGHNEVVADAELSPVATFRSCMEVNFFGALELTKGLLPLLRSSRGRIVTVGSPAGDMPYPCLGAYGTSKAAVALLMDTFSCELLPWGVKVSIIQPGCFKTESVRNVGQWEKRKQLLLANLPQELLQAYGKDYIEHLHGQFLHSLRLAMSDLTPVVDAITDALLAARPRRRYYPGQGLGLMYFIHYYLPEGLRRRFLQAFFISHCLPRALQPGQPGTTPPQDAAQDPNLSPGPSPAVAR

[8] = Half life in human plasma at 1 uM up to 150 mins by LC-MS/MS analysis; format: ADME, cell-free
Salmonella typhimurium [9] = experiment: Mutagenicity in Salmonella typhimurium TA98 up to 100 uM in absence of rat liver S9 fraction by Ames 2 assay; format: toxicity, organism-based; conditions: salmonella enterica subsp. enterica serovar typhimurium
Salmonella typhimurium [10] = experiment: Mutagenicity in Salmonella typhimurium TA7001/7002/7003/7004/7005/7006 up to 100 uM in absence of rat liver S9 fraction by Ames 2 assay; format: toxicity, organism-based; conditions: salmonella enterica subsp. enterica serovar typhimurium
CYP17A1 = target: T5, CYP17A1 (Homo sapiens, UniProt P05093); experiment: Inhibition of human CYP17A1 expressed in Escherichia coli XL1 at 2 uM using [3H]-progesterone as substrate preincubated with substrate for 5 mins measured after 45 mins by HPLC analysis; format: ADME; conditions: human CYP17A1 expressed in Escherichia coli XL1, probe [3H]-progesterone
T5 sequence (P05093 whole entry): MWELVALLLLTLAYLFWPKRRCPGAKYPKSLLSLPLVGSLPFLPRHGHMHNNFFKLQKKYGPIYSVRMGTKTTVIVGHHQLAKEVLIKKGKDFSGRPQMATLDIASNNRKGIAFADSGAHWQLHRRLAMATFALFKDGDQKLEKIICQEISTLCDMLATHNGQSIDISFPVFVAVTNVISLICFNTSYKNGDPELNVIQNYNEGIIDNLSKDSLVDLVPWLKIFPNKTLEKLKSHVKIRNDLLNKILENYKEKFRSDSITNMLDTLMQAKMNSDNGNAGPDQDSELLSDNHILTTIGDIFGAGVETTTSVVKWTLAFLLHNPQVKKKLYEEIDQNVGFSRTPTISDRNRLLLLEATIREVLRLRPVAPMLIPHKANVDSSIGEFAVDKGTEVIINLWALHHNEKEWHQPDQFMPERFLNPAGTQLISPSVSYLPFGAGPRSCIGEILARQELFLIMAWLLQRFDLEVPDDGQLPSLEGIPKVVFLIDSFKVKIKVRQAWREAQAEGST

Zone of skin [11] = experiment: Induction of wound healing in human skin explant assessed as re-epithelialization at 5 uM administered topically for 3 days measured on day 2 post administration by hematoxylin-eosin-saffron staining based microscopic analysis (reference value: 28 +/- 2%); format: functional
Salmonella typhimurium [12] = experiment: Mutagenicity in Salmonella typhimurium TA7001/7002/7003/7004/7005/7006 up to 100 uM in presence of rat liver S9 fraction by Ames 2 assay; format: toxicity, organism-based; conditions: salmonella enterica subsp. enterica serovar typhimurium
Zone of skin [13] = experiment: Induction of wound healing in human skin explant assessed as re-epithelialization at 5 uM administered topically for 3 days measured on day 1 post administration by hematoxylin-eosin-saffron staining based microscopic analysis (reference value: 13 +/- 7%); format: functional
[14] = target: T4, 11-beta-hydroxysteroid dehydrogenase type 2; experiment: Inhibition of human 11beta-HSD2 expressed in HEK293 cell lysates at 10 uM using [1,2,6,7-3H]-cortisol as substrate preincubated for 10 mins followed by substrate addition in presence of NAD by scintillation counting relative to control; set-up: species or system Lysate
[15] = target: T3, 11-beta-hydroxysteroid dehydrogenase 1; experiment: Inhibition of human 11beta-HSD1 expressed in HEK293 cell lysate using [1,2-3H]-cortisone as substrate preincubated for 10 mins followed by substrate addition in presence of NADPH by scintillation counting
Target sequence in this assay (P28845 whole entry): as the sequence (P28845 whole entry, looked up) above

[16] = target: T3, 11-beta-hydroxysteroid dehydrogenase 1; experiment: Inhibition of human 11beta-HSD1 expressed in HEK293 cell lysates at 50 uM using [1,2-3H]-cortisone as substrate preincubated for 10 mins followed by substrate addition in presence of NADPH by scintillation counting relative to control
Target sequence in this assay (P28845 whole entry, looked up): as the sequence (P28845 whole entry, looked up) above

| Structure (SMILES) | IC50 [1] | inhibition at 0.35 h, 2 µM (CYP19A1 (aromatase)) | half-life at 1 µM [2] | inhibition [4] | inhibition (INH) [7] | inhibition at 0.75 h, 2 µM (CYP17A1) | other results |
| --- | --- | --- | --- | --- | --- | --- | --- |
| Oc1cncc(Cc2ccc(-c3ccccc3F)nc2)c1 | 29 nM | 1% | 21 min | – | – | – | – |
| COc1cncc(Cc2ccc(-c3ccccc3F)nc2)c1 | 0.8 nM | 2% | 19 min | 48% | Not Active | 5% | Activity (Zone of skin [3]): 98%; viability at 72 h, 11 µM [5]: 87%; Activity (Salmonella typhimurium [6]): Non-Toxic; half-life at 1 µM [8]: > 150 min; Activity (Salmonella typhimurium [9]): Non-Toxic; Activity (Salmonella typhimurium [10]): Non-Toxic; Activity (Zone of skin [11]): 89%; Activity (Salmonella typhimurium [12]): Non-Toxic; Activity (Zone of skin [13]): 10% |
| CC(C)(C(=O)c1cccnc1)c1cccnc1 [METYRAPONE] | – | 0% | 49 min | 70% | Not Active | – | inhibition [16]: 54% |

The remaining molecules from weak to strong by IC50 [1], led by results:

| IC50 [1] | inhibition at 0.35 h, 2 µM (CYP19A1 (aromatase)) | half-life at 1 µM [2] | inhibition [4] | inhibition (INH) [7] | inhibition at 0.75 h, 2 µM (CYP17A1) | Structure (SMILES) | other results |
| --- | --- | --- | --- | --- | --- | --- | --- |
| 120 nM | – | – | – | – | – | Oc1cncc(Cc2cc(-c3ccccc3)no2)c1 | – |
| 77 nM | – | – | – | – | – | Oc1cncc(Cc2cnc(-c3ccccc3)s2)c1 | – |
| 17 nM | 0% | 33 min | – | – | 10% | Cn1nc(-c2ccccc2)cc1Cc1cncc(O)c1 | inhibition (INH) [14]: Not Active; IC50 [15]: 1620 nM |
